Data: patent US7405228B2, “Antibacterial cyano-(substituted)-methylenepiperidinophenyl oxazolidinones targeting multiple ribonucleoprotein sites” (Wockhardt Limited, priority 2002, dated 2008)
In brackets after ≈: the same amount, converted by molar mass. Like-named read-outs stand apart in the source and are kept apart here.

Key:
[1] = system: linezolid-resistant S. pneumoniae; conditions: Adis R&D Insight report Document 013296; cited from earlier work
[2] = system: E. faecium 367 LNZR; assay: MIC determination, linezolid resistant E. faecium 367 LNZR; assay type: cell-based; conditions: Enterococcus faecium
Description: (§1) E. faecium ATCC 19434 strain at a cell density of 10^6/ml was inoculated in Mueller Hinton broth medium containing Linezolid at a concentration of 5 and 7.5 mcg/ml. The stationary culture was incubated at 37° C. and inspected at every 24 hours to assess the formation of turbidity due to the onset of bacterial growth. […] A 50 microliter sample of turbid flask was plated on Mueller Hinton agar medium incorporated with linezolid at 7.5 mcg/ml. The agar plates were incubated for 48 hours at 37° C. for the formation of discrete colonies of linezolid-resistant strain of E. faecium (E. faecium 367 LNZR). MICs of resistant mutant E. faecium 367 LNZR and parent strain E. faecium ATCC 19434 were determined for linezolid by NCCLS method.
(§2) Cultures were further diluted 1:10 in Mueller Hinton broth. Using Denley's mutipoint inoculator, 10^4 cells were deposited on Mueller Hinton agar (Difco) containing range of 2 fold dilutions of test compounds. […] MIC is defined as minimum drug concentration that inhibits test organisms. For determining MIC of test compounds against Streptococcus pneumoniae, Mueller Hinton agar containing 5% sheep blood was employed.

[3] = system: S. aureus MRSA-32 LNZR; assay: MIC determination, linezolid resistant S. aureus MRSA-32 LNZR; assay type: cell-based; conditions: Staphylococcus aureus
Description: (§3) Infecting doses of organisms given by intraperitoneal route in 5% hog gastric mucin were 10^3-10^4 CFU (colony forming units)/animal for SPN 6303 and 10^8 CFU/animal for MRSA-32. In case of MRSA-32, Linezolid was administered by oral route, 1 and 4 h post infection, BID (twice a day) for 1 day and for SPN 6303 BID for 2 days. […] MICs of Methicillin Resistant Staphylococcus aureus-32 Linezolid resistant (MRSA-32 LNZR), S. pneumoniae 744 Linezolid resistant (SPN 744 LNZR) and parent Linezolid sensitive strains MRSA-32 and SPN 6303 were determined for Linezolid by NCCLS agar dilution method.
as §2

[4] = system: Enterococcus faecalis 416 strain; assay: Propensity to resistance development (resistant colonies per plate); assay type: cell-based; conditions: E. faecalis 416 at 10^8 CFU, compound concentration 5 mcg/ml, 48 hours at 35° C.
Description: Enterococcus faecalis 416 strain at 10^8 CFU density level was spirally plated on Mueller Hinton agar containing 5 mcg/ml each of linezolid and representative compound of the invention. Plates were incubated at 35° C. for 48 hours and number of resistant colonies developed in presence of respective compounds were counted by automated counter.

[5] = system: SPN 744 LNZR; assay: MIC determination, linezolid resistant SPN 744 LNZR; assay type: cell-based; conditions: Streptococcus pneumoniae
Description: as §3, §2

[6] = system: MRSA 032; assay: MIC determination, linezolid sensitive MRSA 032 (MRSA-32); assay type: cell-based; conditions: Staphylococcus aureus
Description: as §3, §2

[7] = system: Enterococcus faecalis 416; assay: Mutant Prevention Concentration (MPC) determination; assay type: cell-based; set-up: unit not given here; conditions: E. faecalis 416, 10^9 CFU/plate, TSA, 48 hours at 35° C.
Description: Clinical isolate Enterococcus faecalis 416 was spirally plated on Tryptic Soya agar (TSA) plate containing various 2 fold dilutions each of a representative compound of the invention and Linezolid so as to give 10^9 CFU/plate. After incubation at 35° C. for 48 hours, the CFU on each plate was determined. MPC is defined as minimum concentration of drug that prevents mutant colonies on respective antibiotic containing plate.

[8] = system: Enterococcus faecalis 416 strain; assay: Killing effect study (bactericidal vs bacteriostatic activity); assay type: cell-based; conditions: initial count 10^6 CFU/ml; for Final Count (112 h): E. faecalis 416, 5 mcg/ml compound, Table 4
Description: The initial inoculum was adjusted to 10^6 CFU (colony forming units) per ml. The flasks were kept on shaker in close cabinet at 35° C. Aliquots were drawn at 112 hours and cell count was determined to assess the extent of loss in viability.

[9] = system: SPN 49619; assay: MIC determination, linezolid sensitive SPN 49619; assay type: cell-based; conditions: Streptococcus pneumoniae; linezolid sensitive strain, Table 3
[10] = system: S. aureus Smith; assay: MIC determination, S. aureus Smith; assay type: cell-based; conditions: Staphylococcus aureus, read-out: Linezolid MIC
[11] = system: S. pneumoniae ATCC 6303; assay: MIC determination, linezolid sensitive S. pneumoniae ATCC 6303 (SPN 6303); assay type: cell-based; conditions: Streptococcus pneumoniae, ATCC6303
Description: as §3

[12] = system: E. faecium ATCC 19434; assay: MIC determination, parent strain E. faecium ATCC 19434; assay type: cell-based; conditions: Enterococcus faecium, ATCC19434; Linezolid sensitive E. faecium ATCC 19434, NCCLS method
Description: as §1

[13] = system: S. pneumoniae ATCC 6303 LR; assay: MIC determination, linezolid-resistant mutant S. pneumoniae ATCC 6303 LR; assay type: cell-based; conditions: Streptococcus pneumoniae, ATCC6303, read-out: Linezolid MIC
[14] = system: MRSA-32; assay: ED50 in mouse systemic infection model, MRSA-32; assay type: in vivo; conditions: MRSA-32 parent strain
Description: as §3

[15] = system: MRSA-32 LNZR; assay: ED50 in mouse systemic infection model, MRSA-32 LNZR; assay type: in vivo
[16] = system: S. aureus Smith LR; assay: MIC determination, linezolid-resistant mutant S. aureus Smith LR; assay type: cell-based; conditions: Staphylococcus aureus, read-out: Linezolid MIC
[17] = system: SPN 744 LNZR; assay: ED50 in mouse systemic infection model, SPN 744 LNZR; assay type: in vivo
[18] = system: MRSA 032 LR; assay: MIC determination, linezolid-resistant mutant MRSA 032 LR; assay type: cell-based; conditions: Staphylococcus aureus, read-out: Linezolid MIC
[19] = system: SPN 6303; assay: ED50 in mouse systemic infection model, SPN 6303; assay type: in vivo; conditions: SPN 6303 parent strain
Description: as §3

[20] = read-out: MIC E. faecium 367 LNZR
[21] = 24 h, read-out: MIC MRSA 32 LNZR

Structure (SMILES) | MIC [2, 20] | MIC [3, 21] | No. of colonies/plate [4] | MIC ([5]; read-out: MIC SPN744 LNZR) | MIC ([6]; read-out: MIC MRSA 32) | MPC [7] | Final Count (112 h) [8] | MIC [9] | also measured
O=C([C@@H](O)CO)N1CC=C(c2c(F)cc(N3C[C@H](COc4ccon4)OC3=O)cc2F)CC1 [AZD 2563] |  |  |  |  |  |  |  |  | activity against linezolid-resistant S. pneumoniae [1]: ineffective
CC(=O)NC[C@H]1CN(c2ccc(N3CCC(=CC#N)CC3)cc2)C(=O)O1 [Example 3, (S)-N-{3-[4-(4-cyanomethylidene-piperidin-1-yl)-phenyl]-2-oxo-oxazolidin-5-ylmethyl}-acetamide] | 25 µg/mL (≈ 70.5 µM) | 25 µg/mL (≈ 70.5 µM) | 0 | 12.5 µg/mL (≈ 35.3 µM) | 1.56 µg/mL (≈ 4.4 µM) | 12.5 | 10^6 CFU/ml | 0.8 µg/mL (≈ 2.26 µM) | 
CC(=O)NC[C@H]1CN(c2ccc(N3CCC(=CC#N)CC3)c(F)c2)C(=O)O1 [Example 9, (S)-N-{3-[4-(4-cyanomethylidene-piperidin-1-yl)-3-fluorophenyl]-2-oxo-oxazolidin-5-ylmethyl}-acetamide] |  |  | 0 |  |  | 6.25 | 10^3 CFU/ml |  | 
N#CC=C1CCN(c2ccc(N3C[C@H](CNC(=O)C(Cl)Cl)OC3=O)cc2F)CC1 [Example 32, (S)-N-{3-[4-(4-cyanomethylidene-piperidin-1-yl)-3-fluorophenyl]-2-oxo-oxazolidin-5-ylmethyl}-dichloroacetamide] | 6.25 µg/mL (≈ 14.2 µM) | 12.5 µg/mL (≈ 28.3 µM) | 0 | 6.25 µg/mL (≈ 14.2 µM) | 0.8 µg/mL (≈ 1.81 µM) | 6.25 |  | 0.8 µg/mL (≈ 1.81 µM) | 
COC(=S)NC[C@H]1CN(c2ccc(N3CCC(=CC#N)CC3)c(F)c2)C(=O)O1 [Example 46, (S)-N-{3-[4-(4-cyanomethylidene-piperidin-1-yl)-3-fluorophenyl]-2-oxo-oxazolidin-5-ylmethyl}-methylthiocarbamate] | 1.56 µg/mL (≈ 3.86 µM) | 6.25 µg/mL (≈ 15.5 µM) | 0 | 6.25 µg/mL (≈ 15.5 µM) | 0.2 µg/mL (≈ 0.494 µM) | 1.56 | <10^2 CFU/ml | 0.2 µg/mL (≈ 0.494 µM) | 
N#CC=C1CCN(c2ccc(N3C[C@H](CNC(N)=S)OC3=O)cc2F)CC1 [Example 51, (S)-N-{3-[4-(4-cyanomethylidene-piperidin-1-yl)-3-fluorophenyl]-2-oxo-oxazolidin-5-ylmethyl}-thiocarbamide] | 1.56 µg/mL (≈ 4.01 µM) | 3.12 µg/mL (≈ 8.01 µM) | 0 | 3.12 µg/mL (≈ 8.01 µM) | 0.4 µg/mL (≈ 1.03 µM) | 1.56 | <10^2 CFU/ml | 0.2 µg/mL (≈ 0.514 µM) | 
C#CCC(C#N)=C1CCN(c2ccc(N3C[C@H](CNC(C)=O)OC3=O)cc2F)CC1 [Example 96, (S)-N-{3-[4-(4-(1-cyano-3-yne-butylidene)-piperidin-1-yl)-3-fluorophenyl]-2-oxo-oxazolidin-5-ylmethyl}-acetamide] | 3.12 µg/mL (≈ 7.6 µM) | 12.5 µg/mL (≈ 30.5 µM) | 0 | 6.25 µg/mL (≈ 15.2 µM) | 0.8 µg/mL (≈ 1.95 µM) | 6.25 | <10^2 CFU/ml | 0.8 µg/mL (≈ 1.95 µM) | 
CC(=O)NC[C@H]1CN(c2ccc(N3CCOCC3)c(F)c2)C(=O)O1 [Linezolid, reference compound] | > 25 µg/mL | > 25 µg/mL | 1.2 × 10^2 | 25 µg/mL (≈ 74.1 µM) | 1.56 µg/mL (≈ 4.62 µM) | 12.5 | 10^8 CFU/ml | 0.8 µg/mL (≈ 2.37 µM) | MIC [10]: 1.56 µg/mL (≈ 4.62 µM); MIC ([11]; S. pneumoniae ATCC 6303, Table 1, read-out: Linezolid MIC): 0.8 µg/mL (≈ 2.37 µM); MIC ([11]; parent Linezolid sensitive SPN 6303, NCCLS agar dilution method, read-out: MIC): 0.8 µg/mL (≈ 2.37 µM); MIC [2]: 25 µg/mL (≈ 74.1 µM); MIC [12]: 1.56 µg/mL (≈ 4.62 µM); MIC [13]: 25 µg/mL (≈ 74.1 µM); MIC [3]: 50 µg/mL (≈ 148 µM); ED50 [14]: 5 mg/kg; MIC [5]: 25 µg/mL (≈ 74.1 µM); ED50 [15]: 100 mg/kg; MIC [6]: 1.56 µg/mL (≈ 4.62 µM); MIC ([6]; read-out: Linezolid MIC): 1.56 µg/mL (≈ 4.62 µM); final count after killing effect study ([8]; E. faecalis 416, 5 mcg/ml): 10^9 CFU/ml; MIC [16]: 50 µg/mL (≈ 148 µM); ED50 [17]: > 200 mg/kg; MIC [18]: 25 µg/mL (≈ 74.1 µM); ED50 [19]: 75 mg/kg
